Read-outs that look alike come from different tables or passages of the source. Positions of bridges follow the written chain, without caps; N, C: chain ends. Non-standard residues stand in square brackets, D forms with d. Residues, ends and D or L forms follow the SMILES beside them. Groups on a side chain read outwards from the residue. *: point of attachment. DOTA = O=C(O)CN1CCN(CC(=O)O)CCN(CC(=O)*)CCN(CC(=O)O)CC1; 2Nal = N[C@@H](Cc1ccc2ccccc2c1)C(=O)O; Lys(iPr) = CC(C)NCCCC[C@H](N)C(=O)O
Key:
Format in all cases: in vivo
[1] = Biodistribution in Daudi tumor-bearing mice; details: male, NOD.Cg-Rag1^tm1MomII2rg^tm1Wjl/SzJ (NRG), mouse, iv, total radioactivity, Daudi
Protocol: (§1) For Daudi, Z138, GRANTA519 and Jeko1 xenografts, male NOD.Cg-Rag1^tm1MomII2rg^tm1Wjl/SzJ (NRG) mice were subcutaneously inoculated on the left flank with 5×10^6 cells (100 μL; 1:1 ratio of PBS/Matrigel) and tumors were grown to a size of 200-500 mm^3. For PC-3 xenografts, male NOD.Cg-Rag1^tm1MomII2rg^tm1Wjl/SzJ (NRG) mice were subcutaneously inoculated on the left flank with 5×10^6 PC-3 cells (100 μL; 1:1 ratio of PBS/Matrigel) and tumors were grown to a size of 200-400 mm^3.
(§2) The mice were euthanized via CO2 inhalation while anesthetized with isoflurane. Tissues were harvested, washed in PBS, blotted dry, weighed, and measured on a Hidex AMG Automatic Gamma Counter.

[2] = system: Daudi Burkitt's lymphoma xenografts; experiment: Biodistribution in Daudi tumor-bearing mice; details: Daudi
Protocol: as §1, §2

[3] = Biodistribution in GRANTA519 tumor-bearing mice; details: male, NOD.Cg-Rag1^tm1MomII2rg^tm1Wjl/SzJ (NRG), mouse, iv, total radioactivity, GRANTA519
Protocol: as §1, §2

[4] = system: GRANTA519 mantle cell lymphoma xenografts; experiment: Biodistribution in GRANTA519 tumor-bearing mice; details: GRANTA519
Protocol: as §1, §2

[5] = fat, 1 h, read-out: Biodistribution Fat
[6] = fat, 1 h blocked (7.5 μg LY2510924 i.p.), read-out: Biodistribution Fat
[7] = 1 h blocked (7.5 μg LY2510924 i.p.)

CC(C)NCCCC[C@@H]1NC(=O)[C@H](Cc2ccc(O)cc2)NC(=O)[C@H](Cc2ccccc2)NC(=O)CC[C@H](C(=O)N[C@@H](CCCCNC(C)C)C(=O)N[C@@H](CCCCNC(=O)[C@H](CCC(=O)O)NC(=O)[C@H](CCC(=O)O)NC(=O)[C@H](CCC(=O)O)NC(=O)CN2CCN(CC(=O)O)CCN(CC(=O)O)CCN(CC(=O)O)CC2)C(N)=O)NC(=O)CNC(=O)[C@H](Cc2ccc3ccccc3c2)NC(=O)[C@@H](CCCNC(=N)N)NC1=O [[^68Ga]Ga-BL02, metal not drawn] (FY[Lys(iPr)][dR][2Nal]G[dE][Lys(iPr)]K([Glu-Glu-Glu-DOTA])-NH2; lactam N-7)
tissue uptake at 1 h ([1]; blood, 1 h, read-out: Biodistribution Blood): 0.31 %ID/g | tissue uptake at 1 h ([1]; blood, 1 h blocked (7.5 μg LY2510924 i.p.), read-out: Biodistribution Blood): 0.5 %ID/g | tissue uptake at 2 h ([1]; blood, read-out: Biodistribution Blood): 0.08 %ID/g | tissue uptake at 1 h [1, 5]: 0.05 %ID/g | tissue uptake at 1 h [1, 6]: 0.07 %ID/g | tissue uptake at 2 h ([1]; fat, read-out: Biodistribution Fat): 0.02 %ID/g | tissue uptake at 1 h ([1]; tumor, 1 h blocked (7.5 μg LY2510924 i.p.), read-out: Biodistribution Daudi (tumor)): 0.8 %ID/g | tissue uptake at 2 h ([1]; tumor, read-out: Biodistribution Daudi (tumor)): 7.78 %ID/g | Biodistribution Adrenals ([2]; 1 h): 0.36 % ID/g | Biodistribution Bone ([2]; 1 h): 0.19 % ID/g | Biodistribution Brain ([2]; 1 h): 0.02 % ID/g | Biodistribution Daudi (tumor) ([2]; 1 h): 8.52 % ID/g | Biodistribution Heart ([2]; 1 h): 0.13 % ID/g | Biodistribution Intestine ([2]; 1 h): 0.22 % ID/g | Biodistribution Kidney ([2]; 1 h): 4.18 % ID/g | Biodistribution Liver ([2]; 1 h): 0.59 % ID/g | Biodistribution Lung ([2]; 1 h): 0.48 % ID/g | Biodistribution Muscle ([2]; 1 h): 0.10 % ID/g | Biodistribution Pancreas ([2]; 1 h): 0.18 % ID/g | Biodistribution Spleen ([2]; 1 h): 0.53 % ID/g | Biodistribution Stomach ([2]; 1 h): 0.07 % ID/g | Biodistribution Testes ([2]; 1 h): 0.11 % ID/g | Ratio Tumor: Blood ([2]; 1 h): 30.57 | Ratio Tumor: Bone ([2]; 1 h): 48.04 | Ratio Tumor: Liver ([2]; 1 h): 14.30 | Ratio Tumor: Lung ([2]; 1 h): 18.07 | Ratio Tumor: Muscle ([2]; 1 h): 80.77 | Ratio Tumor: Spleen ([2]; 1 h): 17.18 | Biodistribution Adrenals [2, 7]: 0.32 % ID/g | Biodistribution Bone [2, 7]: 0.20 % ID/g | Biodistribution Brain [2, 7]: 0.02 % ID/g | Biodistribution Heart [2, 7]: 0.14 % ID/g | Biodistribution Intestine [2, 7]: 0.31 % ID/g | Biodistribution Kidney [2, 7]: 4.63 % ID/g | Biodistribution Liver [2, 7]: 0.55 % ID/g | Biodistribution Lung [2, 7]: 0.58 % ID/g | Biodistribution Muscle [2, 7]: 0.09 % ID/g | Biodistribution Pancreas [2, 7]: 0.12 % ID/g | Biodistribution Spleen [2, 7]: 0.23 % ID/g | Biodistribution Stomach [2, 7]: 0.07 % ID/g | Biodistribution Testes [2, 7]: 0.15 % ID/g | Ratio Tumor: Blood [2, 7]: 1.71 | Ratio Tumor: Bone [2, 7]: 4.44 | Ratio Tumor: Liver [2, 7]: 1.47 | Ratio Tumor: Lung [2, 7]: 1.43 | Ratio Tumor: Muscle [2, 7]: 9.23 | Ratio Tumor: Spleen [2, 7]: 3.57 | Biodistribution Adrenals ([2]; 2 h): 0.21 % ID/g | Biodistribution Bone ([2]; 2 h): 0.09 % ID/g | Biodistribution Brain ([2]; 2 h): 0.01 % ID/g | Biodistribution Heart ([2]; 2 h): 0.05 % ID/g | Biodistribution Intestine ([2]; 2 h): 0.12 % ID/g | Biodistribution Kidney ([2]; 2 h): 3.40 % ID/g | Biodistribution Liver ([2]; 2 h): 0.54 % ID/g | Biodistribution Lung ([2]; 2 h): 0.27 % ID/g | Biodistribution Muscle ([2]; 2 h): 0.04 % ID/g | Biodistribution Pancreas ([2]; 2 h): 0.05 % ID/g | Biodistribution Spleen ([2]; 2 h): 0.24 % ID/g | Biodistribution Stomach ([2]; 2 h): 0.07 % ID/g | Biodistribution Testes ([2]; 2 h): 0.05 % ID/g | Ratio Tumor: Blood ([2]; 2 h): 114.6 | Ratio Tumor: Bone ([2]; 2 h): 87.81 | Ratio Tumor: Liver ([2]; 2 h): 14.47 | Ratio Tumor: Lung ([2]; 2 h): 31.68 | Ratio Tumor: Muscle ([2]; 2 h): 216.0 | Ratio Tumor: Spleen ([2]; 2 h): 36.06 | tissue uptake at 1 h ([3]; adrenals, 1 h, read-out: Biodistribution Adrenals): 3.48 %ID/g | tissue uptake at 1 h ([3]; adrenals, 1 h blocked (7.5 μg LY2510924 i.p.), read-out: Biodistribution Adrenals): 7.4 %ID/g | tissue uptake at 1 h ([3]; bone, 1 h, read-out: Biodistribution Bone): 0.16 %ID/g | tissue uptake at 1 h ([3]; bone, 1 h blocked (7.5 μg LY2510924 i.p.), read-out: Biodistribution Bone): 0.25 %ID/g | tissue uptake at 1 h ([3]; brain, 1 h, read-out: Biodistribution Brain): 0.01 %ID/g | tissue uptake at 1 h ([3]; brain, 1 h blocked (7.5 μg LY2510924 i.p.), read-out: Biodistribution Brain): 0.02 %ID/g | tissue uptake at 1 h [3, 5]: 0.05 %ID/g | tissue uptake at 1 h [3, 6]: 0.1 %ID/g | tissue uptake at 1 h ([3]; heart, 1 h, read-out: Biodistribution Heart): 0.49 %ID/g | tissue uptake at 1 h ([3]; heart, 1 h blocked (7.5 μg LY2510924 i.p.), read-out: Biodistribution Heart): 0.53 %ID/g | tissue uptake at 1 h ([3]; intestine, 1 h, read-out: Biodistribution Intestine): 0.22 %ID/g | tissue uptake at 1 h ([3]; intestine, 1 h blocked (7.5 μg LY2510924 i.p.), read-out: Biodistribution Intestine): 0.46 %ID/g | tissue uptake at 1 h ([3]; kidney, 1 h, read-out: Biodistribution Kidney): 0.62 %ID/g | tissue uptake at 1 h ([3]; kidney, 1 h blocked (7.5 μg LY2510924 i.p.), read-out: Biodistribution Kidney): 0.81 %ID/g | tissue uptake at 1 h ([3]; liver, 1 h, read-out: Biodistribution Liver): 0.09 %ID/g | tissue uptake at 1 h ([3]; liver, 1 h blocked (7.5 μg LY2510924 i.p.), read-out: Biodistribution Liver): 0.19 %ID/g | tissue uptake at 1 h ([3]; lung, 1 h, read-out: Biodistribution Lung): 0.12 %ID/g | tissue uptake at 1 h ([3]; lung, 1 h blocked (7.5 μg LY2510924 i.p.), read-out: Biodistribution Lung): 0.25 %ID/g | tissue uptake at 1 h ([3]; muscle, 1 h, read-out: Biodistribution Muscle): 0.07 %ID/g | tissue uptake at 1 h ([3]; muscle, 1 h blocked (7.5 μg LY2510924 i.p.), read-out: Biodistribution Muscle): 0.14 %ID/g | tissue uptake at 1 h ([3]; pancreas, 1 h, read-out: Biodistribution Pancreas): 0.2 %ID/g | tissue uptake at 1 h ([3]; pancreas, 1 h blocked (7.5 μg LY2510924 i.p.), read-out: Biodistribution Pancreas): 0.34 %ID/g | tissue uptake at 1 h ([3]; spleen, 1 h, read-out: Biodistribution Spleen): 0.49 %ID/g | tissue uptake at 1 h ([3]; spleen, 1 h blocked (7.5 μg LY2510924 i.p.), read-out: Biodistribution Spleen): 0.53 %ID/g | tissue uptake at 1 h ([3]; stomach, 1 h, read-out: Biodistribution Stomach): 0.05 %ID/g | tissue uptake at 1 h ([3]; stomach, 1 h blocked (7.5 μg LY2510924 i.p.), read-out: Biodistribution Stomach): 0.12 %ID/g | tissue uptake at 1 h ([3]; testes, 1 h, read-out: Biodistribution Testes): 0.16 %ID/g | tissue uptake at 1 h ([3]; testes, 1 h blocked (7.5 μg LY2510924 i.p.), read-out: Biodistribution Testes): 0.2 %ID/g | tissue uptake at 1 h ([3]; tumor (GRANTA519 xenograft), 1 h, read-out: Biodistribution GRANTA519 (tumor)): 5.5 %ID/g | tissue uptake at 1 h ([3]; tumor (GRANTA519 xenograft), 1 h blocked (7.5 μg LY2510924 i.p.), read-out: Biodistribution GRANTA519 (tumor)): 0.72 %ID/g | tissue uptake at 1 h ([3]; whole blood, 1 h, read-out: Biodistribution Blood): 0.41 %ID/g | tissue uptake at 1 h ([3]; whole blood, 1 h blocked (7.5 μg LY2510924 i.p.), read-out: Biodistribution Blood): 0.83 %ID/g | Ratio Tumor: Blood ([4]; 1 h): 13.83 | Ratio Tumor: Bone ([4]; 1 h): 45.39 | Ratio Tumor: Liver ([4]; 1 h): 11.28 | Ratio Tumor: Lung ([4]; 1 h): 9.12 | Ratio Tumor: Muscle ([4]; 1 h): 83.17 | Ratio Tumor: Spleen ([4]; 1 h): 15.86 | Ratio Tumor: Blood [4, 7]: 0.94 | Ratio Tumor: Bone [4, 7]: 4.27 | Ratio Tumor: Liver [4, 7]: 1.37 | Ratio Tumor: Lung [4, 7]: 0.96 | Ratio Tumor: Muscle [4, 7]: 5.36 | Ratio Tumor: Spleen [4, 7]: 1.78

From US20220218852A1, “NOVEL RADIOLABELLED CXCR4-TARGETING COMPOUNDS FOR DIAGNOSIS AND THERAPY” (PROVINCIAL HEALTH SERVICES AUTHORITY, priority 2019, published 2022)
